We go through 22 molecules from PubChem BioAssay AID248 (DTP/NCI, 2004).

The test system of the assay is L1210 leukemia ip in BDF1 mice, survival T/C. Briefly: NCI In Vivo Anticancer Drug Screen. Data for tumor model L1210 Leukemia (intraperitoneal) in B6D2F1 (BDF1) mice. To be noted: endpoint: mean survival time, higher = longer survival. The procedure, abridged: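 Transplanted-tumor mice were given test agent; controls received vehicle only. Survival readings from the two groups were divided (treated over control).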

The mark [1] stands for this setting: dose: 100.0 mg/kg/injection, schedule: Q01DX009 (ip), vehicle: Klucel (hydroxypropylcellulose) (HPC).
The mark [2] stands for this setting: dose: 200.0 mg/kg/injection, schedule: Q01DX009 (ip), vehicle: Klucel (hydroxypropylcellulose) (HPC).
Where [3] appears, read: dose: 400.0 mg/kg/injection, schedule: Q01DX009 (ip), vehicle: Klucel (hydroxypropylcellulose) (HPC).
Where [4] appears, read: dose: 50.0 mg/kg/injection, schedule: Q01DX009 (ip), vehicle: saline.
Where [5] appears, read: dose: 100.0 mg/kg/injection, schedule: Q04DX002 (ip), vehicle: Klucel (hydroxypropylcellulose) (HPC).
Setting [6] is: dose: 200.0 mg/kg/injection, schedule: Q04DX002 (ip), vehicle: Klucel (hydroxypropylcellulose) (HPC).
Where [7] appears, read: dose: 400.0 mg/kg/injection, schedule: Q04DX002 (ip), vehicle: Klucel (hydroxypropylcellulose) (HPC).
Setting [8] is: dose: 100.0 mg/kg/injection, schedule: Q01DX001 (ip), vehicle: carboxymethylcellulose (CMC).
Setting [9] is: dose: 200.0 mg/kg/injection, schedule: Q01DX001 (ip), vehicle: carboxymethylcellulose (CMC).
Where [10] appears, read: dose: 100.0 mg/kg/injection, schedule: Q04DX003 (ip), vehicle: Klucel (hydroxypropylcellulose) (HPC).
Where [11] appears, read: dose: 200.0 mg/kg/injection, schedule: Q04DX003 (ip), vehicle: Klucel (hydroxypropylcellulose) (HPC).
Setting [12] is: dose: 400.0 mg/kg/injection, schedule: Q04DX003 (ip), vehicle: Klucel (hydroxypropylcellulose) (HPC).
The mark [13] stands for this setting: dose: 100.0 mg/kg/injection, schedule: Q01DX009 (ip), vehicle: saline with Tween-80.
The mark [14] stands for this setting: dose: 200.0 mg/kg/injection, schedule: Q01DX009 (ip), vehicle: saline with Tween-80.
Where [15] appears, read: dose: 400.0 mg/kg/injection, schedule: Q01DX009 (ip), vehicle: saline with Tween-80.
[16] abbreviates: dose: 1.25 mg/kg/injection, schedule: Q01DX009 (ip), vehicle: saline.
Setting [17] is: dose: 2.5 mg/kg/injection, schedule: Q01DX009 (ip), vehicle: saline.
Where [18] appears, read: dose: 10.0 mg/kg/injection, schedule: Q01DX009 (ip), vehicle: saline.
Where [19] appears, read: dose: 50.0 mg/kg/injection, schedule: Q01DX001 (ip), vehicle: saline.
Setting [20] is: dose: 100.0 mg/kg/injection, schedule: Q01DX001 (ip), vehicle: saline.
The mark [21] stands for this setting: dose: 200.0 mg/kg/injection, schedule: Q01DX001 (ip), vehicle: saline.
Where [22] appears, read: dose: 400.0 mg/kg/injection, schedule: Q01DX001 (ip), vehicle: saline.
The mark [23] stands for this setting: dose: 100.0 mg/kg/injection, schedule: Q04DX003 (ip), vehicle: saline with Tween-80.
Setting [24] is: dose: 200.0 mg/kg/injection, schedule: Q04DX003 (ip), vehicle: saline with Tween-80.
[25] abbreviates: dose: 400.0 mg/kg/injection, schedule: Q04DX003 (ip), vehicle: saline with Tween-80.

Several values for one entry are separate records, joined by “and”; a condition that tells them apart may be missing. Equal values may be shown once. Toxic doses and inconclusive results are not listed.

With `COc1ccc(OC)c(NC(=O)Nc2ccc(SC)cc2)c1`, the T/C is, setting by setting: under setting [1], 96 % of control; under setting [2], 90 % of control; under setting [3], 98 % of control.
`CC(c1ccccc1)n1cncc1C(=O)N(C)C` (stereo not given): the T/C by setting is: under setting [4], 96 % of control; (dose: 100.0 mg/kg/injection, schedule: Q01DX009 (ip), vehicle: saline) 101 % of control; (dose: 100.0 mg/kg/injection, schedule: Q04DX003 (ip), vehicle: saline) 97 % of control; (dose: 200.0 mg/kg/injection, schedule: Q01DX009 (ip), vehicle: saline) 97 % of control; (dose: 200.0 mg/kg/injection, schedule: Q04DX003 (ip), vehicle: saline) 93 % of control.
Turning to `CCCCCCCCOC(=O)c1ccc2nc3cc4ccccc4cc3nc2c1`, the T/C runs as follows: under setting [5], 94 % of control; under setting [6], 92 % of control; under setting [7], 92 % of control.
For the molecule `NNc1ccc2cccc(O)c2n1`, the T/C reads like this: under setting [8], 90 % of control; under setting [9], 93 % of control.
As to `ClC1=C(Cl)C(Cl)(Cl)C(Cl)(Cl)C1(Cl)Cl`, the T/C is, setting by setting: (dose: 12.5 mg/kg/injection, schedule: Q01DX009 (ip), vehicle: saline) 99 % of control; (dose: 25.0 mg/kg/injection, schedule: Q01DX009 (ip), vehicle: Klucel (hydroxypropylcellulose) (HPC)) 92 % of control; (dose: 25.0 mg/kg/injection, schedule: Q01DX009 (ip), vehicle: saline) 95 % of control; (dose: 50.0 mg/kg/injection, schedule: Q01DX009 (ip), vehicle: Klucel (hydroxypropylcellulose) (HPC)) 96 % of control; under setting [4], 97 % of control; under setting [1], 87 % of control. Further, the T/C is, setting by setting: under setting [10], 104 % of control; under setting [11], 96 % of control; under setting [12], 102 % of control.
As for `CCOC(=O)C1CC2C=CC1C2` (stereo not given), the T/C is 106 % of control under setting [1]; 111 % of control under setting [10]; 101 % of control under setting [2]; 100 % of control under setting [11]; 103 % of control under setting [3]; 105 % of control under setting [12].
For `NCC(OCCCc1ccccc1)C(Cl)(Cl)Cl` (stereo not given), the T/C is 105 % of control (dose: 12.5 mg/kg/injection, schedule: Q04DX003 (ip), vehicle: saline with Tween-80); 105 % of control (dose: 25.0 mg/kg/injection, schedule: Q01DX009 (ip), vehicle: saline with Tween-80); 105 % of control (dose: 25.0 mg/kg/injection, schedule: Q04DX003 (ip), vehicle: saline with Tween-80); 113 % of control (dose: 50.0 mg/kg/injection, schedule: Q01DX009 (ip), vehicle: saline with Tween-80); 100 % of control (dose: 50.0 mg/kg/injection, schedule: Q04DX003 (ip), vehicle: saline with Tween-80).
On to `COc1ccc(-c2nc(-c3cccc(O)c3)[nH]c2-c2ccc(OC)cc2)cc1`, for which the T/C by setting is: under setting [13], 93 % of control; under setting [14], 98 % of control; under setting [15], 105 % of control.
`CS(=O)(=O)OCC(=O)COS(C)(=O)=O`: the T/C under setting [16] was 95 % of control, the T/C under setting [17] was 93 % of control and the T/C under setting [18] was 116 % of control.
In the case of `OCCNC(c1ccc(Cl)cc1)C(O)c1ccc(Cl)cc1` (stereo not given), the T/C was 98 % of control under setting [19], 98 % of control under setting [20] and 98 % of control under setting [21].
For the molecule `NSc1ccc([N+](=O)[O-])cc1`, the T/C (dose: 12.5 mg/kg/injection, schedule: Q01DX001 (ip), vehicle: other) is 102 % of control; the T/C (dose: 25.0 mg/kg/injection, schedule: Q01DX001 (ip), vehicle: other) was 97 % of control; the T/C (dose: 50.0 mg/kg/injection, schedule: Q01DX001 (ip), vehicle: other) was 101 % of control; the T/C under setting [20] was 96 % of control; the T/C under setting [21] is 97 % of control; the T/C under setting [22] is 103 % of control.
On to `O=[N+]([O-])c1ccc(N2CCN(c3cccc(C(F)(F)F)c3)CC2)c([N+](=O)[O-])c1`, for which the T/C reads like this: under setting [23], 105 % of control; under setting [24], 102 % of control; under setting [25], 100 % of control.
Regarding `O=C(O)COc1cc(F)ccc1[N+](=O)[O-]`, the T/C was 91 % of control under setting [5], 102 % of control under setting [6] and 107 % of control under setting [7].
As to `CC1=CC(=O)CC(C)C2CC(=C(C)C)CC12` (stereo not given), the T/C was 100 % of control under setting [10], 108 % of control under setting [11] and 100 % of control under setting [12].
As to `CCCCCCCN1CCCC(OC(=O)N(C)C)C1` (stereo not given), the T/C is, setting by setting: (dose: 25.0 mg/kg/injection, schedule: Q04DX002 (ip), vehicle: saline) 110 % of control; (dose: 50.0 mg/kg/injection, schedule: Q04DX002 (ip), vehicle: saline) 103 % of control; (dose: 100.0 mg/kg/injection, schedule: Q04DX002 (ip), vehicle: saline) 110 % of control and 89 % of control.
As to `Cc1cn(C2CCCO2)c(=O)nc1N` (stereo not given), the T/C reads like this: under setting [19], 103 % of control; under setting [20], 97 % of control; under setting [21], 95 % of control; under setting [22], 101 % of control.
With `C=C(C)CSC(=S)NNc1ccccc1`, the T/C runs as follows: (dose: 150.0 mg/kg/injection, schedule: Q01DX009 (ip), vehicle: saline with Tween-80) 93 % of control; (dose: 225.0 mg/kg/injection, schedule: Q01DX009 (ip), vehicle: saline with Tween-80) 86 % of control.
`CC(=O)OCc1ccc2ccccc2c1`: the T/C under setting [23] was 101 % of control, the T/C under setting [24] is 106 % of control and the T/C under setting [25] was 101 % of control.
With `CN(C)c1ccc(/C=C2\C=Cc3ccccc32)cc1Br`, the T/C under setting [23] was 101 % of control.
As for `CCCCCCCCCCCC#N`, the T/C reads like this: under setting [13], 107 % of control; under setting [14], 96 % of control; under setting [15], 90 % of control.
Regarding `CNC1=C(N2CC2C)C(=O)C(NC)=C(N2CC2C)C1=O` (stereo not given), the T/C (dose: 0.31 mg/kg/injection, schedule: Q01DX009 (ip), vehicle: saline) was 104 % of control and 108 % of control; the T/C (dose: 0.62 mg/kg/injection, schedule: Q01DX009 (ip), vehicle: saline) is 104 % of control; the T/C under setting [16] is 114 % of control and 116 % of control; the T/C (dose: 1.56 mg/kg/injection, schedule: Q04DX003 (ip), vehicle: saline) is 101 % of control; the T/C under setting [17] is 116 % of control; the T/C (dose: 3.12 mg/kg/injection, schedule: Q04DX003 (ip), vehicle: saline) is 98 % of control and 111 % of control and 115 % of control. The T/C by setting is: (dose: 5.0 mg/kg/injection, schedule: Q01DX009 (ip), vehicle: saline) 169 % of control; (dose: 6.25 mg/kg/injection, schedule: Q04DX003 (ip), vehicle: saline) 109 % of control and 123 % of control; (dose: 10.0 mg/kg/injection, schedule: Q01DX001 (ip), vehicle: saline) 96 % of control; under setting [18], 94 % of control and 119 % of control; (dose: 12.0 mg/kg/injection, schedule: Q04DX003 (ip), vehicle: saline) 152 % of control; (dose: 12.5 mg/kg/injection, schedule: Q04DX003 (ip), vehicle: saline) 152 % of control and 193 % of control. For the same molecule, the T/C (dose: 25.0 mg/kg/injection, schedule: Q04DX003 (ip), vehicle: saline) was 96 % of control and 118 % of control; the T/C (dose: 50.0 mg/kg/injection, schedule: Q04DX003 (ip), vehicle: saline) was 98 % of control and 89 % of control.
On to `Cc1ccc(N)cc1NC(=O)c1ccccc1`, for which the T/C by setting is: under setting [8], 106 % of control; under setting [9], 94 % of control; (dose: 400.0 mg/kg/injection, schedule: Q01DX001 (ip), vehicle: carboxymethylcellulose (CMC)) 108 % of control.
